Like-named read-outs stand apart in the source and are kept apart here.
Test system: HCMV
Format: cell-based
Settings: FIG. 7A
In short: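 Viral protein levels come from parallel reaction monitoring on a Q Exactive HF: trypsin digests of infected-cell lysates, quantified as summed transition areas, normalized to host control peptides, averaged across peptides per protein. Cells were MRC5 fibroblasts, infected at MOI 3 (HSV-1 or HCMV) after 12 h compound pretreatment, with re-dosing every 24 h.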
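For UL32 (P08318) protein level in this document: each peptide scaled to its average across all runs.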
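For UL38 (P16779) protein level in this document: each peptide scaled to its average across all runs.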
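For UL78 (P16751) protein level in this document: each peptide scaled to its average across all runs.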
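For UL95 (P16801) protein level in this document: each peptide scaled to its average across all runs.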

## Oc1ccc(C=Cc2cc(O)cc(O)c2)cc1 [Resveratrol]
Timepoint 24, DE
  CVC2 (P16726) protein level: 0.02416
  DBP (P17147) protein level: 0.2603
  HELI (P16736) protein level: 0.5239
  IR01 (P09710) protein level: 0.2395
  NEC2 (P16791) protein level: 0.05031
  TRM1 (P16724) protein level: 0.0496
  UL4 (P17146) protein level: 0.02792
  UL26 (P16762) protein level: 0.08745
  UL32 (P08318) protein level: 0.02724
  UL34 (P16812) protein level: 0.1096
  UL38 (P16779) protein level: 0.9691
  UL44 (P16790) protein level: 0.0591
  UL48 (P16785) protein level: 0.02194
  UL54 (P08546) protein level: 0.6295
  UL71 (P16823) protein level: 0.5252
  UL78 (P16751) protein level: 1.896
  UL84 (P16727) protein level: 0.1406
  UL95 (P16801) protein level: 0.06756
  UL96 (P16787) protein level: 0.4727
  UL97 (P16788) protein level: 0.3652
  UL98 (P16789) protein level: 0.2979
  UL102 (P16827) protein level: 0.889
  UL104 (P16735) protein level: 0.07335
  UL112/UL113 (P17151) protein level: 0.3601
  UL114 (P16769) protein level: 0.8008
  UL119/UL118 (P16739) protein level: 0.5596
  UL128 (P16837) protein level: 0.08035
  US8 (P09730) protein level: 0.9856
  US9 (P09729) protein level: 1.12
  US12 (P09721) protein level: 1.673
  US13 (P09720) protein level: 0.5476
  US14 (P09719) protein level: 0.3883
  US22 (P09722) protein level: 0.3379
  US23 (P09701) protein level: 1.209
  US24 (P09700) protein level: 1.019
  US34 (P09709) protein level: 2.475
  gB (P06473) protein level: 0.2035
Timepoint 24, IE
  IRS1 (P09715) protein level: 0.53
  TRS1 (P09695) protein level: 0.2907
  UL13 (P16755) protein level: 2.216
  UL36 (P16767) protein level: 1.36
  UL37 (P16778) protein level: 0.9797
  UL122 (P19893) protein level: 0.06584
  UL123 (P13202) protein level: 1.053
Timepoint 24, L
  CVC1 (P16799) protein level: 0.1335
  IR11 (P16809) protein level: 0.4092
  MCP (P16729) protein level: 0.005554
  TRM2 (P16792) protein level: 0.01236
  UL22A (P16845) protein level: 0.06878
  UL25 (P16761) protein level: 0.02173
  UL29 (P16764) protein level: 0.6989
  UL31 (P16848) protein level: 0.4434
  UL43 (P16781) protein level: 0.0621
  UL52 (P16793) protein level: 0.02488
  UL80 (P16753) protein level: 0.03642
  UL82 (P06726) protein level: 0.2024
  UL88 (P16731) protein level: 0.05174
  UL94 (P16800) protein level: 0.1027
  UL99 (P13200) protein level: 0.04805
  UL103 (P16734) protein level: 0.3861
  UL117 (P16770) protein level: 0.7439
  gH (P12824) protein level: 0.08651
  gL (P16832) protein level: 0.03756
  gM (P16733) protein level: 0.04047
  gN (P16795) protein level: 0.1854
Timepoint 24, LL
  DUT (P16824) protein level: 0.3815
  IR12 (P16810) protein level: 0.1305
  TRX1 (P16783) protein level: 0.007402
  TRX2 (P16728) protein level: 0.006335
  UL24 (P16760) protein level: 0.115
  UL40 (P16780) protein level: 0.6816
  UL47 (P16784) protein level: 0.01314
  UL49 (P16786) protein level: 0.3801
  UL69 (P16749) protein level: 0.259
  UL70 (P17149) protein level: 0.2151
  UL83 (P06725) protein level: 0.04868
  UL132 (P69338) protein level: 0.1519
  US15 (P09718) protein level: 2.089
Timepoint 48, DE
  CVC2 (P16726) protein level: 0.04895
  DBP (P17147) protein level: 0.3174
  HELI (P16736) protein level: 0.7035
  IR01 (P09710) protein level: 0.3325
  NEC2 (P16791) protein level: 0.1347
  RIR1 (P16782) protein level: 0.1467
  TRM1 (P16724) protein level: 0.1744
  UL4 (P17146) protein level: 0.1071
  UL26 (P16762) protein level: 0.09224
  UL32 (P08318) protein level: 0.06407
  UL34 (P16812) protein level: 0.1265
  UL35 (P16766) protein level: 0.02653
  UL38 (P16779) protein level: 0.8069
  UL44 (P16790) protein level: 0.09657
  UL48 (P16785) protein level: 0.05393
  UL54 (P08546) protein level: 0.9464
  UL71 (P16823) protein level: 0.3661
  UL78 (P16751) protein level: 1.07
  UL84 (P16727) protein level: 0.1489
  UL95 (P16801) protein level: 0.2914
  UL96 (P16787) protein level: 0.3861
  UL97 (P16788) protein level: 0.3732
  UL98 (P16789) protein level: 0.3412
  UL102 (P16827) protein level: 1.27
  UL104 (P16735) protein level: 0.1091
  UL112/UL113 (P17151) protein level: 0.4545
  UL114 (P16769) protein level: 1.322
  UL119/UL118 (P16739) protein level: 0.6367
  UL128 (P16837) protein level: 0.03596
  US8 (P09730) protein level: 1.343
  US9 (P09729) protein level: 2.242
  US12 (P09721) protein level: 0.8964
  US13 (P09720) protein level: 0.5923
  US14 (P09719) protein level: 0.2304
  US22 (P09722) protein level: 0.5371
  US23 (P09701) protein level: 0.5982
  US24 (P09700) protein level: 0.4857
  US34 (P09709) protein level: 2.409
  gB (P06473) protein level: 0.1991
Timepoint 48, IE
  IRS1 (P09715) protein level: 0.8671
  TRS1 (P09695) protein level: 0.7123
  UL13 (P16755) protein level: 0.6646
  UL36 (P16767) protein level: 1.045
  UL37 (P16778) protein level: 1.143

— patent US20240027453A1, “METHOD FOR DETECTION AND QUANTITATIVE MONITORING OF INFECTIONS WITH HERPESVIRUSES” (The Trustees of Princeton University, priority 2020, published 2024)
